Among the test systems are SNB-75; HT-29; UO-31; EKVX; PC-3; Malme-3M; SF-268; MOLT-4; BT-549; RXF 393; NCI-H522; DU-145; HL-60; LXFL 529; UACC-62; MDA-MB-435; RPMI-8226; 786-0; OVCAR-5; SK-MEL-28.
Common to all, as to test: NCI-60 cell line screen, 48 h

The structures appear in SMILES notation.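 In this assay, cells in 96-well plates receive the compound at five concentrations for 48 hours. Endpoints are linearly interpolated between the surrounding concentrations. Here, GI50 denotes the concentration required for 50% inhibition of growth.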 Activity calls are given as the source filed them. Rule as the data show it: active = GI50 up to about 1.1 µM and inactive = higher.

With `c1ccc2c(NCCCCCCNc3c4ccccc4nc4ccccc34)c3ccccc3nc2c1`, the GI50 with SNB-75 is 0.713 µM (active); in the assay on HT-29 it was 0.0287 µM (active); with UO-31 it was 11.3 µM (inactive); in the assay with EKVX, 0.367 µM (active); in the assay with PC-3, 0.445 µM (active); with Malme-3M, 1.17 µM (inactive). The GI50 in the assay with SF-268 is 0.56 µM (active); with MOLT-4, 0.0149 µM (active); in the assay with BT-549, 1.5 µM (inactive); in the assay with RXF 393, 0.191 µM (active); in the assay on NCI-H522, 0.0893 µM (active); in the assay with DU-145, 0.632 µM (active). The GI50 with HL-60 was 0.25 µM (active); with LXFL 529, 0.155 µM (active); in the assay with UACC-62 it was 0.695 µM (active); in the assay on MDA-MB-435, 0.887 µM (active); with RPMI-8226, < 0.0358 µM (active); in the assay on 786-0, 0.232 µM (active). Further, in the assay with OVCAR-5, the GI50 is 0.13 µM (active).
Take `COc1nc(NC2OC(COC(C)=O)C(OC(C)=O)C(OC(C)=O)C2OC(C)=O)c(/N=C/C=N/c2c(NC3OC(COC(C)=O)C(OC(C)=O)C(OC(C)=O)C3OC(C)=O)nc(OC)n(C)c2=O)c(=O)n1C` (centres undefined): the GI50 is 17 µM (inactive) in the assay with SNB-75; > 100 µM (inactive) with HT-29; > 100 µM (inactive) with SK-MEL-28; > 100 µM (inactive) in the assay with UO-31; > 100 µM (inactive) in the assay with EKVX; > 100 µM (inactive) in the assay with PC-3. Besides, the GI50 with Malme-3M is > 100 µM (inactive); in the assay with SF-268 it was > 70.3 µM (inactive); in the assay on MOLT-4, > 100 µM (inactive); with BT-549, > 100 µM (inactive); in the assay on RXF 393 it was 30.5 µM (inactive); in the assay on NCI-H522, > 100 µM (inactive). Moreover, the GI50 with DU-145, with HL-60, with LXFL 529, in the assay with UACC-62, in the assay on MDA-MB-435 and with RPMI-8226 was > 100 µM (inactive) throughout. The GI50 in the assay with 786-0 was 51.5 µM (inactive); in the assay on OVCAR-5, > 100 µM (inactive).
Take `NC(N)=NN/C(=C1/N=c2ccc([N+](=O)[O-])cc2=NC1=O)C(O)c1ccco1` (centres undefined): the GI50 was > 100 µM (inactive) in the assay with SNB-75; > 100 µM (inactive) in the assay with HT-29; > 100 µM (inactive) in the assay with SK-MEL-28; 64.7 µM (inactive) in the assay on UO-31; > 100 µM (inactive) with EKVX; > 100 µM (inactive) in the assay on Malme-3M. Besides, the GI50 is > 100 µM (inactive) in the assay on SF-268; > 100 µM (inactive) in the assay with MOLT-4; > 100 µM (inactive) in the assay with RXF 393; 32.8 µM (inactive) in the assay on NCI-H522; 35.9 µM (inactive) in the assay on HL-60; 92.7 µM (inactive) in the assay with LXFL 529. The GI50 in the assay on UACC-62 was > 100 µM (inactive); with RPMI-8226 it was 43.7 µM (inactive); with 786-0 it was > 100 µM (inactive); with OVCAR-5, > 100 µM (inactive).
In the case of `COc1cc(/C=C2/C(=O)N(C(=O)OCC(C)C)C(Cc3cc(OC)c(OC)c(C)c3OC)C(=O)N2Cc2ccccc2)c(OC)c(C)c1OC` (centres undefined), the GI50 with SNB-75 was > 100 µM (inactive); with HT-29, > 100 µM (inactive); in the assay with SK-MEL-28, > 100 µM (inactive); with UO-31, 11.6 µM (inactive); in the assay on EKVX it was 72.1 µM (inactive); in the assay on Malme-3M, > 100 µM (inactive). Also, the GI50 is > 100 µM (inactive) in the assay on SF-268; 7.35 µM (inactive) with MOLT-4; > 100 µM (inactive) in the assay with RXF 393; 5.26 µM (inactive) in the assay with NCI-H522; 8.2 µM (inactive) with HL-60; 5.57 µM (inactive) in the assay on LXFL 529. Further, the GI50 with UACC-62 is > 100 µM (inactive); with RPMI-8226, 21.8 µM (inactive); in the assay on 786-0 it was > 100 µM (inactive); in the assay with OVCAR-5, > 100 µM (inactive).
For `C[C@H](N)C(=O)N[C@@H]1[C@H]2C(=C(O)C[C@@H](O)[C@@H]2O)C(=O)O[C@]1(C)C(Cl)Cl` [BACTOBOLIN], the GI50 was 0.185 µM (active) in the assay on SNB-75; 0.155 µM (active) in the assay with HT-29; 0.234 µM (active) in the assay with SK-MEL-28; 0.979 µM (active) in the assay on UO-31; 0.207 µM (active) in the assay on EKVX; 0.232 µM (active) with PC-3. In addition, the GI50 in the assay with Malme-3M is 0.278 µM (active); with SF-268, 0.184 µM (active); in the assay with BT-549 it was 0.165 µM (active); in the assay on RXF 393 it was 0.17 µM (active); in the assay with NCI-H522, 0.16 µM (active); with DU-145, 0.182 µM (active). In addition, the GI50 with LXFL 529 is 0.108 µM (active); in the assay with UACC-62, 0.23 µM (active); in the assay on MDA-MB-435, 0.248 µM (active); in the assay with 786-0, 0.0655 µM (active); with OVCAR-5, 0.604 µM (active).
With `Cc1[nH]c2ccccc2c1C1Cc2ccccc2N1C(=O)/C(Cl)=C/c1ccccc1` (centres undefined), the GI50 in the assay on SNB-75 was 4.65 µM (inactive); in the assay with HT-29, > 100 µM (inactive); in the assay with SK-MEL-28, > 100 µM (inactive); in the assay on UO-31, 16.3 µM (inactive); with EKVX, > 48.9 µM (inactive); in the assay with Malme-3M, > 86.3 µM (inactive). Besides, the GI50 with SF-268 is > 78.9 µM (inactive); with MOLT-4 it was 15.2 µM (inactive); in the assay with RXF 393, 7.83 µM (inactive); in the assay on NCI-H522, > 100 µM (inactive); in the assay with HL-60, 98.2 µM (inactive); with LXFL 529, > 100 µM (inactive). The GI50 in the assay on UACC-62 was > 100 µM (inactive); in the assay on RPMI-8226 it was > 72.6 µM (inactive); with 786-0 it was > 100 µM (inactive); with OVCAR-5, > 100 µM (inactive).

These data come from ChEMBL document CHEMBL1201862, “PubChem BioAssay data set” (2004).
